# Test results as given in patent US9340809B2, “Microbial conversion of sugar acids and means therein” (VALTION […] TUTKIMUSKESUS, priority 2005, dated 2016).
# How the values were obtained:
# [1] = molecular target: T1, L-galactonic acid dehydratase (Trichoderma reesei, UniProt Q0QWS4); experiment: specificity test of L-galactonic acid dehydratase in yeast extract of strain H3350, formation of reducing sugars; type: biochemical, Hypocrea jecorina (Trichoderma reesei); details: yeast extract of S. cerevisiae strain H3350 expressing lgd1; formation of reducing sugars followed
# T1 construct: made in house; host or cells: Saccharomyces cerevisiae strain H3350 (DSM 17214), crude yeast extract
# T1 sequence (Q0QWS4 1-450): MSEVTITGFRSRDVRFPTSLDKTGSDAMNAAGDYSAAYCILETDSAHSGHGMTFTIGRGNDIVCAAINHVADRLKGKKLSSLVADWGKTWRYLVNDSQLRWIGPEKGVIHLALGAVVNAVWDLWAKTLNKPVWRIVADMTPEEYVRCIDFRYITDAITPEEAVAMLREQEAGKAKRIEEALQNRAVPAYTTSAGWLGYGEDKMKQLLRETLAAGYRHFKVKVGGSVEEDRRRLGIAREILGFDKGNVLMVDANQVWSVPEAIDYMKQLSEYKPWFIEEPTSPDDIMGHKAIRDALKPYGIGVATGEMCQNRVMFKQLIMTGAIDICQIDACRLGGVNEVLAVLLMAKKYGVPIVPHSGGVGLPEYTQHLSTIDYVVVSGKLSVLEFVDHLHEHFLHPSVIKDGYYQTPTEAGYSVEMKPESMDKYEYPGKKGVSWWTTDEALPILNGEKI
# Excerpt: The resulting vector was then transformed to a strain of Saccharomyces cerevisiae. The resulting S. cerevisiae strain was then disintegrated by vortexing with glass beads and the yeast extract analyzed for L-galactonic acid dehydratase activity. To assay the L-galactonic acid dehydratase activity L-galactonic acid was mixed with the yeast extract and formation of reducing sugars followed using standard protocols. (Bernfeld, P. (1955) “Amylases, α and β,” In: Methods In Enzymology, vol. 1, Colovick S. P., Kaplan, N. O. (eds.) Academic Press NY, pp 149-158).
# To test the specificity of the enzyme the yeast extract as described before was mixed with the sugar acids D-gluconic acid, D-arabonic acid, D-xylonic acid, L-gulonic acid and L-galactonic acid. We followed the formation of reducing sugars as described in the example 1.
# [2] = molecular target: T1, L-galactonic acid dehydratase; experiment: conversion of L-galactonic acid by yeast extract of strain H3350, product quantified as 2-keto-3-deoxy sugar acid in a chemical assay; type: biochemical, Hypocrea jecorina (Trichoderma reesei); details: after 21 hours; protein concentration of yeast extract 0.15 g/l; initial L-galactonic acid concentration 10 mM
# Procedure: L-galactonic acid was mixed with the yeast extract of strain H3350 as described in example 1. The reaction product was identified as a 2-keto-3-deoxy sugar acid in a chemical assay and quantified as described by Buchanan et al. (1999) Biochem. J., 343:563-570. The protein concentration of the yeast extract in the reaction medium was 0.15 g/l and the initial L-galactonic acid concentration 10 mM. After 21 hours 1.04 mM of L-threo-3-deoxy-hexulosonic acid was formed.
SMILES,enzyme activity with the sugar acid as substrate [1],L-threo-3-deoxy-hexulosonic acid formed [2] [mM]
O=C(O)[C@@H](O)[C@H](O)[C@H](O)CO [D-arabonic acid],Activity was observed,–
O=C(O)[C@H](O)[C@@H](O)[C@H](O)[C@H](O)CO [D-gluconic acid],does not exhibit activity,–
O=C(O)[C@H](O)[C@@H](O)[C@H](O)CO [D-xylonic acid],does not exhibit activity,–
O=C(O)[C@@H](O)[C@H](O)[C@H](O)[C@@H](O)CO [L-galactonic acid],Activity was observed,1.04
